Measured values reported in the NIST ThermoML archive (doi:10.1021/je0340809).
± gives the expanded uncertainty stated by the source.

Test: xn = mol fraction of the nth substance listed
Settings: 101.3 kPa, Liquid

C=CN1CCCC1=O [N-vinylpyrrolidone] + O
Settings	mass density [kg/m3]	speed of sound [m/s]	viscosity [mPa·s]
298.15 K, x2 = 0.0557	1042.3 ± 0.77	1533.7 ± 6.3	4.243 ± 0.097
298.15 K, x2 = 0.1591	1043.33 ± 0.77	1548.1 ± 6.4	–
298.15 K, x2 = 0.2543	1044.19 ± 0.78	1563.3 ± 6.4	3.875 ± 0.089
298.15 K, x2 = 0.3503	1044.83 ± 0.78	1580.9 ± 6.5	3.75 ± 0.086
298.15 K, x2 = 0.4525	1045.46 ± 0.79	1598.7 ± 6.5	3.717 ± 0.085
298.15 K, x2 = 0.5028	1045.82 ± 0.79	1609.9 ± 6.6	3.742 ± 0.085
298.15 K, x2 = 0.5539	1046.19 ± 0.79	1618.5 ± 6.6	3.792 ± 0.086
298.15 K, x2 = 0.6546	1046.56 ± 0.79	1635.8 ± 6.6	3.91 ± 0.088
298.15 K, x2 = 0.7505	1045.06 ± 0.78	1649.2 ± 6.7	3.904 ± 0.087
298.15 K, x2 = 0.8519	1037.72 ± 0.73	1648.2 ± 6.7	3.466 ± 0.078
298.15 K, x2 = 0.8751	1034.5 ± 0.71	1646.7 ± 6.7	3.255 ± 0.074
298.15 K, x2 = 0.8852	1032.84 ± 0.7	1644.4 ± 6.7	3.145 ± 0.071
298.15 K, x2 = 0.9001	1030.08 ± 0.69	1640 ± 6.6	2.962 ± 0.067
298.15 K, x2 = 0.9251	1024.45 ± 0.65	1623.7 ± 6.6	2.591 ± 0.059
298.15 K, x2 = 0.9357	1021.63 ± 0.63	1613.8 ± 6.6	2.408 ± 0.056
298.15 K, x2 = 0.9554	1015.6 ± 0.6	1589.5 ± 6.5	2.021 ± 0.047
298.15 K, x2 = 0.9649	1012.26 ± 0.57	1574.7 ± 6.4	–
298.15 K, x2 = 0.9749	1008.43 ± 0.55	1556.5 ± 6.4	1.573 ± 0.037
298.15 K, x2 = 0.9903	1001.77 ± 0.51	1523.1 ± 6.3	1.169 ± 0.029
308.15 K, x2 = 0.0557	1033.43 ± 0.71	1502.5 ± 6.2	2.907 ± 0.067
308.15 K, x2 = 0.1591	1034.36 ± 0.72	1514.3 ± 6.3	2.809 ± 0.065
308.15 K, x2 = 0.2543	1035.14 ± 0.72	1526.7 ± 6.3	2.718 ± 0.063
308.15 K, x2 = 0.3503	1035.73 ± 0.73	1541.2 ± 6.3	2.667 ± 0.062
308.15 K, x2 = 0.4525	1036.33 ± 0.73	1556.2 ± 6.4	2.694 ± 0.062
308.15 K, x2 = 0.5028	1036.61 ± 0.73	1565.6 ± 6.4	2.742 ± 0.063
308.15 K, x2 = 0.5539	1037.01 ± 0.73	1573.3 ± 6.4	2.807 ± 0.065
308.15 K, x2 = 0.6546	1037.41 ± 0.73	1589.3 ± 6.5	2.954 ± 0.068
308.15 K, x2 = 0.7505	1036.16 ± 0.73	1603.4 ± 6.5	3.001 ± 0.069
308.15 K, x2 = 0.8519	1029.8 ± 0.69	1609.5 ± 6.5	2.703 ± 0.062
308.15 K, x2 = 0.8751	1026.99 ± 0.67	1610.5 ± 6.5	2.545 ± 0.059
308.15 K, x2 = 0.8852	1025.54 ± 0.66	1609.8 ± 6.5	2.463 ± 0.057
308.15 K, x2 = 0.9001	1023.12 ± 0.64	1608.2 ± 6.5	2.324 ± 0.054
308.15 K, x2 = 0.9251	1018.18 ± 0.61	1599.1 ± 6.5	2.04 ± 0.048
308.15 K, x2 = 0.9357	1015.71 ± 0.6	1593.2 ± 6.5	1.9 ± 0.045
308.15 K, x2 = 0.9554	1010.4 ± 0.56	1578.2 ± 6.4	1.6 ± 0.038
308.15 K, x2 = 0.9649	1007.47 ± 0.55	1568.8 ± 6.4	1.437 ± 0.034
308.15 K, x2 = 0.9749	1004.09 ± 0.52	1557.1 ± 6.4	1.252 ± 0.031
308.15 K, x2 = 0.9903	998.206 ± 0.51	1535.4 ± 6.3	0.932 ± 0.024
318.15 K, x2 = 0.0557	1024.6 ± 0.66	1470.5 ± 6.1	2.552 ± 0.058
318.15 K, x2 = 0.1591	1025.41 ± 0.66	1480.4 ± 6.1	2.454 ± 0.056
318.15 K, x2 = 0.2543	1026.11 ± 0.67	1490.9 ± 6.2	2.362 ± 0.054
318.15 K, x2 = 0.3503	1026.63 ± 0.67	1503.3 ± 6.2	2.305 ± 0.053
318.15 K, x2 = 0.4525	1027.16 ± 0.67	1516.6 ± 6.3	2.31 ± 0.053
318.15 K, x2 = 0.5028	1027.46 ± 0.67	1524.9 ± 6.3	2.34 ± 0.054
318.15 K, x2 = 0.5539	1027.78 ± 0.68	1532.1 ± 6.3	2.385 ± 0.055
318.15 K, x2 = 0.6546	1028.14 ± 0.68	1547.7 ± 6.4	2.488 ± 0.057
318.15 K, x2 = 0.7505	1027.08 ± 0.67	1563.3 ± 6.4	2.509 ± 0.057
318.15 K, x2 = 0.8519	1021.56 ± 0.64	1576 ± 6.4	2.249 ± 0.052
318.15 K, x2 = 0.8751	1019.1 ± 0.62	1579.4 ± 6.5	2.115 ± 0.049
318.15 K, x2 = 0.8852	1017.84 ± 0.61	1580.1 ± 6.5	2.046 ± 0.048
318.15 K, x2 = 0.9001	1015.73 ± 0.6	1580.9 ± 6.5	1.929 ± 0.045
318.15 K, x2 = 0.9251	1011.41 ± 0.57	1577.9 ± 6.4	1.692 ± 0.04
318.15 K, x2 = 0.9357	1009.25 ± 0.56	1575.3 ± 6.4	1.576 ± 0.037
318.15 K, x2 = 0.9554	1004.59 ± 0.53	1567.9 ± 6.4	1.326 ± 0.032
318.15 K, x2 = 0.9649	1002.02 ± 0.51	1562.9 ± 6.4	1.191 ± 0.029
318.15 K, x2 = 0.9749	999.05 ± 0.51	1556.6 ± 6.4	1.037 ± 0.026
318.15 K, x2 = 0.9903	993.883 ± 0.54	1544.4 ± 6.3	0.776 ± 0.02
328.15 K, x2 = 0.0557	1015.77 ± 0.6	1433 ± 6	2.221 ± 0.051
328.15 K, x2 = 0.1591	1016.49 ± 0.61	1441.7 ± 6	2.128 ± 0.049
328.15 K, x2 = 0.2543	1017.1 ± 0.61	1451.2 ± 6.1	2.042 ± 0.047
328.15 K, x2 = 0.3503	1017.56 ± 0.61	1462.3 ± 6.1	1.983 ± 0.046
328.15 K, x2 = 0.4525	1018.03 ± 0.62	1474.7 ± 6.1	1.975 ± 0.046
328.15 K, x2 = 0.5028	1018.3 ± 0.62	1482.4 ± 6.2	1.993 ± 0.046
328.15 K, x2 = 0.5539	1018.58 ± 0.62	1489.6 ± 6.2	2.025 ± 0.047
328.15 K, x2 = 0.6546	1018.91 ± 0.62	1505.7 ± 6.2	2.096 ± 0.049
328.15 K, x2 = 0.7505	1018 ± 0.61	1523.4 ± 6.3	2.103 ± 0.049
328.15 K, x2 = 0.8519	1013.18 ± 0.58	1542.9 ± 6.3	1.876 ± 0.044
328.15 K, x2 = 0.8751	1011.04 ± 0.57	1548.6 ± 6.4	1.763 ± 0.041
328.15 K, x2 = 0.8852	1009.94 ± 0.56	1550.7 ± 6.4	1.705 ± 0.04
328.15 K, x2 = 0.9001	1008.09 ± 0.55	1553.7 ± 6.4	1.609 ± 0.038
328.15 K, x2 = 0.9251	1004.31 ± 0.53	1556.2 ± 6.4	1.411 ± 0.034
328.15 K, x2 = 0.9357	1002.41 ± 0.52	1556.5 ± 6.4	1.314 ± 0.032
328.15 K, x2 = 0.9554	998.333 ± 0.51	1556.6 ± 6.4	1.108 ± 0.027
328.15 K, x2 = 0.9649	996.075 ± 0.52	1554.4 ± 6.4	0.995 ± 0.025
328.15 K, x2 = 0.9749	993.467 ± 0.54	1552.6 ± 6.4	0.868 ± 0.022
328.15 K, x2 = 0.9903	988.924 ± 0.57	1548.5 ± 6.3	0.652 ± 0.017
338.15 K, x2 = 0.0557	1006.93 ± 0.55	1406 ± 5.9	1.807 ± 0.043
338.15 K, x2 = 0.1591	1007.56 ± 0.55	1413.8 ± 5.9	1.736 ± 0.041
338.15 K, x2 = 0.2543	1008.1 ± 0.56	1422.3 ± 6	1.668 ± 0.04
338.15 K, x2 = 0.3503	1008.51 ± 0.56	1432.4 ± 6	1.624 ± 0.039
338.15 K, x2 = 0.4525	1008.92 ± 0.56	1444.1 ± 6	1.621 ± 0.039
338.15 K, x2 = 0.5028	1009.15 ± 0.56	1451.3 ± 6.1	1.639 ± 0.039
338.15 K, x2 = 0.5539	1009.4 ± 0.56	1458.3 ± 6.1	1.667 ± 0.04
338.15 K, x2 = 0.6546	1009.7 ± 0.56	1474.6 ± 6.1	1.73 ± 0.041
338.15 K, x2 = 0.7505	1008.9 ± 0.56	1493.7 ± 6.2	1.739 ± 0.041
338.15 K, x2 = 0.8519	1004.69 ± 0.53	1517.9 ± 6.3	1.557 ± 0.037
338.15 K, x2 = 0.8751	1002.82 ± 0.52	1525.2 ± 6.3	1.466 ± 0.035
338.15 K, x2 = 0.8852	1001.85 ± 0.51	1528.2 ± 6.3	1.42 ± 0.034
338.15 K, x2 = 0.9001	1000.23 ± 0.5	1532.8 ± 6.3	1.34 ± 0.032
338.15 K, x2 = 0.9251	996.917 ± 0.52	1539.1 ± 6.3	1.18 ± 0.029
338.15 K, x2 = 0.9357	995.252 ± 0.53	1541.5 ± 6.3	1.1 ± 0.027
338.15 K, x2 = 0.9554	991.671 ± 0.55	1545.5 ± 6.3	0.931 ± 0.023
338.15 K, x2 = 0.9649	989.687 ± 0.56	1547 ± 6.3	0.84 ± 0.021
338.15 K, x2 = 0.9749	987.393 ± 0.58	1548.4 ± 6.3	0.736 ± 0.019
338.15 K, x2 = 0.9903	983.396 ± 0.6	1550.2 ± 6.4	0.56 ± 0.015
